From patent US4439426A, “Semisynthetic macrolidic antibiotics, intermediate compounds for their preparation and related pharmaceutical compositions containing them” (priority 1981, dated 1984)
≈ marks a conversion by molar mass, not a printed value.

How the values were obtained:
[1] = system: Micrococcus luteus ATCC 9341 LRP 6; test: Bacteriostatic power in solid medium (MIC); type: cell-based; details: Micrococcus luteus, ATCC9341, read-out: Minimum inhibiting concentration
Summary of the method: (§1)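 Reported figure: the lowest concentration that inhibits bacterial growth (bacteriostatic MIC). Organisms tested include aerobes and anaerobes of both Gram classes.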

[2] = system: Streptococcus faecalis LRP 7; test: Bacteriostatic power in solid medium (MIC); type: cell-based; details: Enterococcus faecalis, LRP7, read-out: Minimum inhibiting concentration
Summary of the method: as §1

[3] = system: Fusobacteriumnecrophroum ATCC 27852 LRP 210; test: Bacteriostatic power in solid medium (MIC); type: cell-based; details: read-out: Minimum inhibiting concentration
Summary of the method: as §1

[4] = system: Corynebacterium diphteriae LRP 24; test: Bacteriostatic power in solid medium (MIC); type: cell-based; details: Corynebacterium, LRP24, read-out: Minimum inhibiting concentration
Summary of the method: as §1

Shigella sonnei LRP 5 = test: Bacteriostatic power in solid medium (MIC); type: cell-based; details: LRP5, read-out: Minimum inhibiting concentration
Summary of the method: as §1

Escherichia coli LRP 50 = test: Bacteriostatic power in solid medium (MIC); type: cell-based; details: Escherichia coli, LRP50, read-out: Minimum inhibiting concentration
Summary of the method: as §1

[5] = system: Bacteroides fragilis ATCC 23745 LRP 205; test: Bacteriostatic power in solid medium (MIC); type: cell-based; details: Bacteroides fragilis, ATCC23745, read-out: Minimum inhibiting concentration
Summary of the method: as §1

[6] = system: Proteus vulgaris ATCC 6380 LRP 13; test: Bacteriostatic power in solid medium (MIC); type: cell-based; details: Proteus vulgaris, ATCC6380, read-out: Minimum inhibiting concentration
Summary of the method: as §1

[7] = system: Haemophilus influenzae ATCC 19418 LRP 213; test: Bacteriostatic power in solid medium (MIC); type: cell-based; details: Haemophilus influenzae, ATCC19418, read-out: Minimum inhibiting concentration
Summary of the method: as §1

[8] = system: Staphylococcus aureus ATCC 6538P LRP 39; test: Bacteriostatic power in solid medium (MIC); type: cell-based; details: Staphylococcus aureus, ATCC6538P, read-out: Minimum inhibiting concentration
Summary of the method: as §1

[9] = system: Mycoplasma hominis I ATCC 14027 LRP 211; test: Bacteriostatic power in solid medium (MIC); type: cell-based; details: Metamycoplasma hominis, ATCC14027, read-out: Minimum inhibiting concentration
Summary of the method: as §1

[10] = system: Streptococcus pyogenes ATCC 8668 LRP 197; test: Bacteriostatic power in solid medium (MIC); type: cell-based; details: Streptococcus pyogenes, ATCC8668, read-out: Minimum inhibiting concentration
Summary of the method: as §1

[11] = system: Micrococcus luteus ATCC 15957 LRP 193; test: Bacteriostatic power in solid medium (MIC); type: cell-based; details: Micrococcus luteus, ATCC15957, read-out: Minimum inhibiting concentration
Summary of the method: as §1

[12] = system: Streptococcus pyogenes ATCC 8668 LRP 34; test: Bacteriostatic power in solid medium (MIC); type: cell-based; details: Streptococcus pyogenes, ATCC8668, read-out: Minimum inhibiting concentration
Summary of the method: as §1

[13] = system: Streptococcus pneumoniae ATCC 6303 LRP 53; test: Bacteriostatic power in solid medium (MIC); type: cell-based; details: Streptococcus pneumoniae, ATCC6303, read-out: Minimum inhibiting concentration
Summary of the method: as §1

[14] = system: Acholeplasma laidlawii ATCC 23206 LRP 204; test: Bacteriostatic power in solid medium (MIC); type: cell-based; details: Acholeplasma laidlawii, ATCC23206; solid medium; read-out: Minimum inhibiting concentration
Summary of the method: as §1

[15] = system: Streptococcus faecalis subsp. zymogenes ATCC 12958 LRP 61; test: Bacteriostatic power in solid medium (MIC); type: cell-based; details: Enterococcus faecalis, ATCC12958, read-out: Minimum inhibiting concentration
Summary of the method: as §1

[16] = system: Klelsiella pneumoniae LRP 54; test: Bacteriostatic power in solid medium (MIC); type: cell-based; details: read-out: Minimum inhibiting concentration
Summary of the method: as §1

Bacillus subtilis LRP 25 = test: Bacteriostatic power in solid medium (MIC); type: cell-based; details: Bacillus subtilis, LRP25, read-out: Minimum inhibiting concentration
Summary of the method: as §1

[17] = system: Staphylococcus aureus ATCC 14154 LRP 78; test: Bacteriostatic power in solid medium (MIC); type: cell-based; details: Staphylococcus aureus, ATCC14154, read-out: Minimum inhibiting concentration
Summary of the method: as §1

[18] = system: Staphylococcus aureus ATCC 6538P LRP 14; test: Bacteriostatic power in solid medium (MIC); type: cell-based; details: Staphylococcus aureus, ATCC6538P, read-out: Minimum inhibiting concentration
Summary of the method: as §1

[19] = system: Neisseria gonorrhoeae ATCC 19424 LRP 214; test: Bacteriostatic power in solid medium (MIC); type: cell-based; details: Neisseria gonorrhoeae, ATCC19424, read-out: Minimum inhibiting concentration
Summary of the method: as §1

[20] = system: Streptococcus pneumoniae ATCC 6303 LRP 35; test: Bacteriostatic power in solid medium (MIC); type: cell-based; details: Streptococcus pneumoniae, ATCC6303, read-out: Minimum inhibiting concentration
Summary of the method: as §1

[21] = system: Pseudomonas aeruginosa LRP 9; test: Bacteriostatic power in solid medium (MIC); type: cell-based; details: Pseudomonas aeruginosa, LRP9, read-out: Minimum inhibiting concentration
Summary of the method: as §1

[22] = system: Streptococcus pneumoniae ATCC 6303 LRP 52; test: Bacteriostatic power in solid medium (MIC); type: cell-based; details: Streptococcus pneumoniae, ATCC6303, read-out: Minimum inhibiting concentration
Summary of the method: as §1

[23] = Serum concentrations in the rat after oral administration; type: in vivo; details: rat, in vivo, po, 100 mg/kg
Description: administration of 100 mg/kg per os. The values, at the
several sampling times, correspond to mcg of product per ml of serum*.

[24] = system: Clostridium perfrigens ATCC 3624 LRP 206; test: microbe, parasite or virus in culture; type: cell-based; details: ATCC3624, solid medium, anaerobic, read-out: Minimum inhibiting concentration
Summary of the method: as §1

Salmonella typhy LRP 8 = test: microbe, parasite or virus in culture; type: cell-based; details: LRP8, solid medium, read-out: Minimum inhibiting concentration
Summary of the method: as §1

[25] = Stability in acidic environment at 25° C. (half-life of initial microbiological activity); type: physicochemical; details: aqueous solution
Description: Stability in acidic environnment at 25° C. of the novel
Note: t 1/2 represents the time for reducing to one half the initial powe
of the antibiotic determined by microbiological method through diffusion
on a plate using the test stock Microccocus luteus (Sarcina lutea) ATCC

[26] = system: Corynebacterium diphteriae LRP 24; test: Bacteriostatic power in liquid medium (MIC); type: cell-based; details: Corynebacterium, LRP24, read-out: Minimum inhibiting concentration
Summary of the method: as §1

[27] = system: Staphylococcus aureus ATCC 6538 P LRP 39; test: Bacteriostatic power in liquid medium (MIC); type: cell-based; details: Staphylococcus aureus, ATCC6538, read-out: Minimum inhibiting concentration
Summary of the method: as §1

[28] = system: Streptococcus pyogenes ATCC 8668 LRP 34; test: Bacteriostatic power in liquid medium (MIC); type: cell-based; details: Streptococcus pyogenes, ATCC8668, read-out: Minimum inhibiting concentration
Summary of the method: as §1

[29] = system: Streptococcus pneumoniae ATCC 6303 LRP 35; test: Bacteriostatic power in liquid medium (MIC); type: cell-based; details: Streptococcus pneumoniae, ATCC6303, read-out: Minimum inhibiting concentration
Summary of the method: as §1

[30] = system: Streptococcus faecalis subs. zymogenes ATCC 12958 LRP 61; test: Bacteriostatic power in liquid medium (MIC); type: cell-based; details: Enterococcus faecalis, ATCC12958, read-out: Minimum inhibiting concentration
Summary of the method: as §1

[31] = system: Corynebacterium diphteriae LRP 24; test: Minimum bactericidal concentration (MBC); type: cell-based; details: Corynebacterium, LRP24, read-out: Minimum bactericidal concentration (MBC)
Description: (§2) the bacterial power, expressed as the minimum bactericidal power (MBC) against some Gram positive aerobic stocks (table 5).

[32] = system: Staphylococcus aureus ATCC 6538 P LRP 39; test: Minimum bactericidal concentration (MBC); type: cell-based; details: Staphylococcus aureus, ATCC6538, read-out: Minimum bactericidal concentration (MBC)
Description: as §2

[33] = system: Streptococcus pyogenes ATCC 8668 LRP 34; test: Minimum bactericidal concentration (MBC); type: cell-based; details: Streptococcus pyogenes, ATCC8668, read-out: Minimum bactericidal concentration (MBC)
Description: as §2

[34] = system: Streptococcus pneumoniae ATCC 6303 LRP 35; test: Minimum bactericidal concentration (MBC); type: cell-based; details: Streptococcus pneumoniae, ATCC6303, read-out: Minimum bactericidal concentration (MBC)
Description: as §2

[35] = system: Streptococcus faecalis subs. zymogenes LRP 61; test: Minimum bactericidal concentration (MBC); type: cell-based; details: Enterococcus faecalis, read-out: Minimum bactericidal concentration (MBC)
Description: as §2

Molecule `CC[C@H]1OC(=O)[C@H](C)[C@@H](O[C@H]2C[C@@](C)(OC)[C@@H](O)[C@H](C)O2)[C@H](C)[C@@H](O[C@@H]2O[C@H](C)C[C@H](N(C)C)[C@H]2O)[C@](C)(O)C[C@@H](C)C(=O)[C@H](C)[C@@H](O)[C@]1(C)O` [Erythromycin A, reference compound] has an MIC [1] of 0.006 µg/mL (≈ 0.00818 µM), an MIC [2] of 0.097 µg/mL (≈ 0.132 µM) and an MIC [3] of 3.12 µg/mL (≈ 4.25 µM). The MIC [4] was 0.006 µg/mL (≈ 0.00818 µM), the MIC (Shigella sonnei LRP 5) was 12.5 µg/mL (≈ 17 µM) and the MIC (Escherichia coli LRP 50) was 6.25 µg/mL (≈ 8.52 µM). It also gave an MIC [5] of 0.195 µg/mL (≈ 0.266 µM), an MIC [6] of 25 µg/mL (≈ 34.1 µM) and an MIC [7] of 3.12 µg/mL (≈ 4.25 µM). The MIC [8] was 0.049 µg/mL (≈ 0.0668 µM), the MIC [9] was 25 µg/mL (≈ 34.1 µM) and the MIC [10] was 0.012 µg/mL (≈ 0.0164 µM). The MIC [11] was 25 µg/mL (≈ 34.1 µM), the MIC [12] was 0.012 µg/mL (≈ 0.0164 µM) and the MIC [13] was 0.012 µg/mL (≈ 0.0164 µM). For the same molecule, the MIC [14] was 0.097 µg/mL (≈ 0.132 µM), the MIC [15] was 0.097 µg/mL (≈ 0.132 µM) and the MIC [16] was 12.5 µg/mL (≈ 17 µM). For the same molecule, the MIC (Bacillus subtilis LRP 25) was 0.049 µg/mL (≈ 0.0668 µM), the MIC [17] was 25 µg/mL (≈ 34.1 µM) and the MIC [18] was 0.049 µg/mL (≈ 0.0668 µM). For the same molecule, the MIC [19] was 0.049 µg/mL (≈ 0.0668 µM), the MIC [20] was 0.012 µg/mL (≈ 0.0164 µM) and the MIC [21] was 25 µg/mL (≈ 34.1 µM). The MIC [22] was 0.012 µg/mL (≈ 0.0164 µM), the concentration at 2 h ([23]; 100 mg/kg per os, 2 hours) was 1140 ng/mL and the concentration at 0.5 h ([23]; Serum concentration, average) was 478 ng/mL. The concentration at 1 h ([23]; Serum concentration, average) was 534 ng/mL, the concentration at 4 h ([23]; Serum concentration, average) was 262 ng/mL and the concentration at 6 h ([23]; Serum concentration, average) was 165 ng/mL. For the same molecule, the MIC [24] was 1.56 µg/mL (≈ 2.13 µM), the MIC (Salmonella typhy LRP 8) was 12.5 µg/mL (≈ 17 µM) and the half-life ([25]; pH 2) was 2 min. For the same molecule, the half-life ([25]; pH 3) was 6 min, the MIC [26] was 0.012 µg/mL (≈ 0.0164 µM) and the MIC [27] was 0.097 µg/mL (≈ 0.132 µM). For the same molecule, the MIC [28] was 0.024 µg/mL (≈ 0.0327 µM), the MIC [29] was 0.024 µg/mL (≈ 0.0327 µM) and the MIC [30] was 0.39 µg/mL (≈ 0.531 µM). The MBC [31] was 0.049 µg/mL (≈ 0.0668 µM), the MBC [32] was 1.56 µg/mL (≈ 2.13 µM) and the MBC [33] was 0.39 µg/mL (≈ 0.531 µM). The MBC [34] was 0.097 µg/mL (≈ 0.132 µM) and the MBC [35] was 6.25 µg/mL (≈ 8.52 µM).
